30 compounds from patent US9951025B2, “Halogenopyrazoles as inhibitors of thrombin” (VERSEON CORPORATION, priority 2013, dated 2018) can be followed below.

This experiment deals with T1, Human thrombin (Homo sapiens, UniProt P00734).
T1 construct: purchased Haematologic Technologies Inc
Briefly: thrombin protease inhibition assay, chromogenic substrate S-2238. The class given is biochemical. Conditions: 3 nM human thrombin, 125 μM S-2238, 10 min pre-incubation, RT. Here is the method: Compounds described herein can be assayed, by a variety of methods known in the art and described herein, for inhibition of biological activity, e.g., protease activity, of a variety of proteins, e.g., thrombin.
The thrombin activity reported herein (e.g., Table A) was obtained as follows. […] Thrombin was assayed in buffer containing 0.05 M Tris (pH 7.4), 0.015 M NaCl and 0.01% PEG-8000. The final concentration of enzyme used was 3 nM thrombin. […] All assays were performed in 96-well microtiter plates at room temperature (RT). […] Inhibitor IC50 values were determined by adding test compound as ten point, three-fold serial dilutions in buffer solution, as known in the art. The plate was read at 10 minutes after substrate addition. The IC50 was calculated by plotting the percent (%) inhibition against compound concentration and fitting the data to a constrained four parameter sigmoidal curve, as known in the art.
Compound `CN(C)c1cccc2c(S(=O)(=O)N3CCC(c4nn(C(=O)C(C)(C)CO)c(NCc5ccc(Cl)s5)c4F)CC3)cccc12` [Compound 1, 1-(5-[(5-chlorothiophen-2-yl)methyl]amino-3-(1-[5-(dimethylamino)naphthalen-1-yl]sulfonylpiperidin-4-yl)-4-fluoro-1H-pyrazol-1-yl)-3-hydroxy-2,2-dimethylpropan-1-one] displayed a half-maximal inhibitory concentration (IC50) of less than 100 nM. In the case of `CC(C)(C)C(=O)n1nc(-c2ccc3c(c2)CCCC3O)c(F)c1NCc1ccc(Cl)s1` (stereo not drawn) [Compound 2, 1-(5-[(5-chlorothiophen-2-yl)methyl]amino-4-fluoro-3-(5-hydroxy-5,6,7,8-tetrahydronaphthalen-2-yl)-1H-pyrazol-1-yl)-2,2-dimethylpropan-1-one] it was more than 1000 nM; in that of `COCC(C)(C)C(=O)n1nc(C2CCOCC2)c(F)c1NCc1ccc(Cl)s1` [Compound 5, 1-(5-[(5-chlorothiophen-2-yl)methyl]amino-4-fluoro-3-(oxan-4-yl)-1H-pyrazol-1-yl)-3-methoxy-2,2-dimethylpropan-1-one], less than 100 nM; in that of `COC(C)(C)C(=O)n1nc(C2CCNCC2)c(F)c1NCc1ccc(Cl)s1` [Compound 7, 1-(5-[(5-chlorothiophen-2-yl)methyl]amino-4-fluoro-3-(piperidin-4-yl)-1H-pyrazol-1-yl)-2-methoxy-2-methylpropan-1-one], less than 100 nM.

Turning to `COCC(C)(C)C(=O)n1nc(C2CCNCC2)c(F)c1NCc1ccc(Cl)s1` [Compound 9, 1-(5-[(5-chlorothiophen-2-yl)methyl]amino-4-fluoro-3-(piperidin-4-yl)-1H-pyrazol-1-yl)-3-methoxy-2,2-dimethylpropan-1-one], the IC50 is less than 100 nM. Then `CC(C)(C)C(=O)n1nc(-c2ccccc2)c(F)c1NCc1ccc(Cl)s1` [Compound 10, 1-(5-[(5-chlorothiophen-2-yl)methyl]amino-4-fluoro-3-phenyl-1H-pyrazol-1-yl)-2,2-dimethylpropan-1-one], with less than 100 nM.

In the case of `CC(C)(O)C(=O)n1nc(-c2ccccc2)c(F)c1NCc1ccc(Cl)s1` [Compound 11, 1-(5-[(5-chlorothiophen-2-yl)methyl]amino-4-fluoro-3-phenyl-1H-pyrazol-1-yl)-2-hydroxy-2-methylpropan-1-one], the IC50 was less than 100 nM. In the case of `COC(C)(C)C(=O)n1nc(-c2ccccc2)c(F)c1NCc1ccc(Cl)s1` [Compound 12, 1-(5-[(5-chlorothiophen-2-yl)methyl]amino-4-fluoro-3-phenyl-1H-pyrazol-1-yl)-2-methoxy-2-methylpropan-1-one], the IC50 was less than 100 nM.

`COCCOCC(C)(C)C(=O)n1nc(-c2ccccc2)c(F)c1NCc1ccc(Cl)s1` [Compound 13, 1-(5-[(5-chlorothiophen-2-yl)methyl]amino-4-fluoro-3-phenyl-1H-pyrazol-1-yl)-3-(2-methoxyethoxy)-2,2-dimethylpropan-1-one] returned a concentration for half-maximal inhibition (IC50) of less than 100 nM. In the case of `CC(C)(CO)C(=O)n1nc(-c2ccccc2)c(F)c1NCc1ccc(Cl)s1` [Compound 14, 1-(5-[(5-chlorothiophen-2-yl)methyl]amino-4-fluoro-3-phenyl-1H-pyrazol-1-yl)-3-hydroxy-2,2-dimethylpropan-1-one] it was less than 100 nM; in that of `COCC(C)(C)C(=O)n1nc(-c2ccccc2)c(F)c1NCc1ccc(Cl)s1` [Compound 15, 1-(5-[(5-chlorothiophen-2-yl)methyl]amino-4-fluoro-3-phenyl-1H-pyrazol-1-yl)-3-methoxy-2,2-dimethylpropan-1-one], less than 100 nM. Then `CC(C)(C)C(=O)n1nc(-c2ccc(N3CCCC3=O)cc2)c(F)c1NCc1ccc(Cl)s1` [Compound 16, 1-[4-(5-[(5-chlorothiophen-2-yl)methyl]amino-1-(2,2-dimethylpropanoyl)-4-fluoro-1H-pyrazol-3-yl)phenyl]pyrrolidin-2-one], with less than 100 nM; and `O=C1CCCN1c1ccc(-c2nn(C(=O)c3cccc4c3OCCO4)c(NCc3ccc(Cl)s3)c2F)cc1` [Compound 17, 1-[4-(5-[(5-chlorothiophen-2-yl)methyl]amino-1-(2,3-dihydro-1,4-benzodioxine-5-carbonyl)-4-fluoro-1H-pyrazol-3-yl)phenyl]pyrrolidin-2-one], with less than 100 nM; and `COc1ccccc1C(=O)n1nc(-c2ccc(C(O)C(F)(F)F)cc2)c(F)c1NCc1ccc(Cl)s1` (stereo not drawn) [Compound 18, 1-[4-(5-[(5-chlorothiophen-2-yl)methyl]amino-4-fluoro-1-(2-methoxybenzoyl)-1H-pyrazol-3-yl)phenyl]-2,2,2-trifluoroethan-1-ol], with more than 1000 nM.

In turn, `COc1ccccc1C(=O)n1nc(-c2ccc(N3CCCC3=O)cc2)c(F)c1NCc1ccc(Cl)s1` [Compound 19, 1-[4-(5-[(5-chlorothiophen-2-yl)methyl]amino-4-fluoro-1-(2-methoxybenzoyl)-1H-pyrazol-3-yl)phenyl]pyrrolidin-2-one] displayed an IC50 of less than 100 nM. On to `O=C1CCCN1c1ccc(-c2nn(C(=O)c3ccoc3)c(NCc3ccc(Cl)s3)c2F)cc1` [Compound 20, 1-[4-(5-[(5-chlorothiophen-2-yl)methyl]amino-4-fluoro-1-(furan-3-carbonyl)-1H-pyrazol-3-yl)phenyl]pyrrolidin-2-one], for which the 50% inhibitory concentration (IC50) is more than 1000 nM. In the case of `O=C(N1CCC(c2n[nH]c(NCc3ccc(Cl)s3)c2F)CC1)C1(O)CC1` [Compound 21, 1-[4-(5-[(5-chlorothiophen-2-yl)methyl]amino-4-fluoro-1H-pyrazol-3-yl)piperidine-1-carbonyl]cyclopropan-1-ol] it was 100 to 1000 nM; in that of `CC(C)(C)C(=O)n1nc(-c2ccccn2)c(F)c1NCc1ccccc1` [Compound 22, 1-[5-(benzylamino)-4-fluoro-3-(pyridin-2-yl)-1H-pyrazol-1-yl]-2,2-dimethylpropan-1-one], less than 100 nM.

Compound `CC(C)(C)C(=O)n1nc(-c2ccccc2)c(F)c1NCc1ccccc1` [Compound 23, 1-[5-(benzylamino)-4-fluoro-3-phenyl-1H-pyrazol-1-yl]-2,2-dimethylpropan-1-one] came in with an IC50 of less than 100 nM. In the case of `O=C(c1ccccc1)n1nc(C2CCOCC2)c(F)c1NCc1ccc(Cl)s1` [Compound 24, 1-benzoyl-N-[(5-chlorothiophen-2-yl)methyl]-4-fluoro-3-(oxan-4-yl)-1H-pyrazol-5-amine] it was less than 100 nM. Then `O=C(c1ccccc1)n1nc(NCc2ccc(Cl)s2)c(F)c1C1CCOCC1` [Compound 25, 1-benzoyl-N-[(5-chlorothiophen-2-yl)methyl]-4-fluoro-5-(oxan-4-yl)-1H-pyrazol-3-amine], with more than 1000 nM. In the case of `CN(C)c1cccc2c(S(=O)(=O)Oc3ccccc3C(=O)n3nc(-c4ccccc4)c(F)c3NCc3ccc(Cl)s3)cccc12` [Compound 26, 2-(5-[(5-chlorothiophen-2-yl)methyl]amino-4-fluoro-3-phenyl-1H-pyrazole-1-carbonyl)phenyl 5-(dimethylamino)naphthalene-1-sulfonate], the IC50 is 100 to 1000 nM.

With `CN(C)c1cccc2c(S(=O)(=O)Oc3ccc(C(=O)n4nc(-c5ccccc5)c(F)c4NCc4ccc(Cl)s4)cc3)cccc12` [Compound 27, 4-(5-[(5-chlorothiophen-2-yl)methyl]amino-4-fluoro-3-phenyl-1H-pyrazole-1-carbonyl)phenyl 5-(dimethylamino)naphthalene-1-sulfonate], the 50% inhibitory concentration (IC50) was more than 1000 nM.

The compound `CC(C)(C)C(=O)n1nc(-c2ccc(N3CCOCC3=O)cc2)c(F)c1NCc1ccc(Cl)s1` [Compound 28, 4-[4-(5-[(5-chlorothiophen-2-yl)methyl]amino-1-(2,2-dimethylpropanoyl)-4-fluoro-1H-pyrazol-3-yl)phenyl]morpholin-3-one] had an IC50 of less than 100 nM. Then `CC(C)(C)C(=O)n1nc(-c2ccc3c(c2)CCCC3=O)c(F)c1NCc1ccc(Cl)s1` [Compound 29, 6-(5-[(5-chlorothiophen-2-yl)methyl]amino-1-(2,2-dimethylpropanoyl)-4-fluoro-1H-pyrazol-3-yl)-1,2,3,4-tetrahydronaphthalen-1-one], with less than 100 nM. Regarding `COc1ccccc1C(=O)n1nc(-c2ccc3c(c2)CCCC3O)c(F)c1NCc1ccc(Cl)s1` (stereo not drawn) [Compound 30, 6-(5-[(5-chlorothiophen-2-yl)methyl]amino-4-fluoro-1-(2-methoxybenzoyl)-1H-pyrazol-3-yl)-1,2,3,4-tetrahydronaphthalen-1-ol], the IC50 is more than 1000 nM.

The compound `COc1ccccc1C(=O)n1nc(-c2ccc3c(c2)CCCC3=O)c(F)c1NCc1ccc(Cl)s1` [Compound 31, 6-(5-[(5-chlorothiophen-2-yl)methyl]amino-4-fluoro-1-(2-methoxybenzoyl)-1H-pyrazol-3-yl)-1,2,3,4-tetrahydronaphthalen-1-one] registered an IC50 of less than 100 nM.

In turn, `O=C(c1cccc2c1OCCO2)n1nc(C2CCOCC2)c(F)c1NCc1ccc(Cl)s1` [Compound 32, N-[(5-chlorothiophen-2-yl)methyl]-1-(2,3-dihydro-1,4-benzodioxine-5-carbonyl)-4-fluoro-3-(oxan-4-yl)-1H-pyrazol-5-amine] registered an IC50 of less than 100 nM. `O=C(c1cccc2c1OCCO2)n1nc(C2CCNCC2)c(F)c1NCc1ccc(Cl)s1` [Compound 33, N-[(5-chlorothiophen-2-yl)methyl]-1-(2,3-dihydro-1,4-benzodioxine-5-carbonyl)-4-fluoro-3-(piperidin-4-yl)-1H-pyrazol-5-amine] yielded an IC50 of less than 100 nM.

For the compound `O=C(c1cccc2c1OCCO2)n1nc(-c2ccccc2)c(F)c1NCc1ccc(Cl)s1` [Compound 34, N-[(5-chlorothiophen-2-yl)methyl]-1-(2,3-dihydro-1,4-benzodioxine-5-carbonyl)-4-fluoro-3-phenyl-1H-pyrazol-5-amine], the IC50 was less than 100 nM.

The IC50 is the concentration needed to halve the response being measured. Higher therefore signals a need for much substance.
